Data taken from paper PMC9388626, “STUB1 is an intracellular checkpoint for interferon gamma sensing” (Scientific Reports, 2022).

Key:
B16-F10 cells [1] = assay: Flow cytometry, surface IFNGR1 on CRISPR-edited cells; format: cell-based, murine; conditions: B16-F10, 24 h
Experimental: Parental, CRISPR-edited or biologic-overexpressed tumour cells were seeded in a cell density of 60,000 (B16-F10), 150,000 (CT26), 100,000 (A375), or 200,000 (A549) per well in 12-well plate filled with 0.8 ml culture media + 10% FBS. After overnight incubation, the culture media were replaced with 1 ml fresh media supplemented with 10% FBS and the designated concentration of the recombinant mouse IFNγ (R&D Systems, #485-MI-100) or recombinant human IFNγ (R&D Systems, #285-IF-100). The cells were stimulated with the cytokine for 24 h before they were harvested by trypsinization for flow cytometry, western blot, or qPCR analysis (6 h treatment).
(§1) Cells were dissociated from the wells with 0.25% trypsin (Gibco, 25200056). After rinsing with 0.5 ml PBS, each sample was stained with the LIVE/DEAD Fixable Aqua dead cell staining solution (Life Technologies, L34957) in 100 µl PBS (1:1000 dilution) for 15 min at 4 °C. After rinsing with 2 × 0.5 ml PBS, each sample was stained with the corresponding primary antibody-dye conjugates diluted in 100 µl Pharmingen stain buffer (BD Biosciences, #554657). After 1 h staining at 4 °C, the cells were rinsed with 2 × 2 ml Pharmingen stain buffer and fixed with 4.21% (w/w) formaldehyde (BD Biosciences, #554655). Cells were analyzed on LSRFortessa X-20 (BD Biosciences) with appropiate fluorescence compensation. The data were analyzed using FlowJo. Cells were gated based on FSC and SSC. Single cells were selected using FSC-A and FSC-H and viable cells were selected using LIVE/DEAD signal. Primary antibodies used were: H-2K^b/H-2D^b (FITC, Biolegend, #114606, 1:50 dilution), HLA-A,B,C (FITC, Biolegend, #311404, 1:100 dilution), mouse IFNGR1 (PE, Invitrogen, #12-1191-82, 1:50 dilution), human IFNGR1 (PE, Miltenyi, #130-125-851, 1:50 dilution), mouse IL1R1 (APC, Biolegend, #113509, 1:20 dilution), mouse IL6R (APC, Biolegend, #115812, 1:20 dilution), mouse IFNAR1 (APC, Biolegend, #127314, 1:20 dilution), and mouse GP130 (PE, Biolegend, #149404, 1:100 dilution).

B16-F10 cells [2] = assay: Flow cytometry, surface MHC-I on CRISPR-edited cells with IFNγ; format: cell-based, murine
Experimental: Parental, CRISPR-edited or biologic-overexpressed tumour cells were seeded in a cell density of 60,000 (B16-F10), 150,000 (CT26), 100,000 (A375), or 200,000 (A549) per well in 12-well plate filled with 0.8 ml culture media + 10% FBS. After overnight incubation, the culture media were replaced with 1 ml fresh media supplemented with 10% FBS and the designated concentration of the recombinant mouse IFNγ (R&D Systems, #485-MI-100) or recombinant human IFNγ (R&D Systems, #285-IF-100). […]
as §1

IFNγ
Cell surface IFNGR1 with increasing IFNγ (B16-F10 cells [1]): declined with increasing IFNγ concentration | IFNγ concentration needed by parental and control cells for response comparable to Stub1-null cells (B16-F10 cells [2]; B16-F10 (Fig. 1b, e)): at least tenfold higher concentration of IFNγ | MHC-I relative abundance compared to parental (B16-F10 cells [2]; Parental, 0.10 ng ml-1, 24 h): 1.00 | MHC-I relative abundance compared to parental (B16-F10 cells [2]; Parental, 0.10 ng ml-1, 48 h): 1.00 | Surface MHC-I (B16-F10 cells [2]; Stub1-null vs parental and control B16-F10): significantly higher, IFNγ-dependent, MHC-I on cell surface | MHC-I relative abundance compared to parental (B16-F10 cells [2]; clone 1A12 (gStub1 #2), 0.10 ng ml-1, 24 h): 3.60 | MHC-I relative abundance compared to parental (B16-F10 cells [2]; clone 1A12 (gStub1 #2), 0.10 ng ml-1, 48 h): 11.41 | MHC-I relative abundance compared to parental (B16-F10 cells [2]; clone 1B9, 0.10 ng ml-1, 24 h): 1.36 | MHC-I relative abundance compared to parental (B16-F10 cells [2]; clone 1B9, 0.10 ng ml-1, 48 h): 1.43 | MHC-I relative abundance compared to parental (B16-F10 cells [2]; clone 1D8, 0.10 ng ml-1, 24 h): 4.16 | MHC-I relative abundance compared to parental (B16-F10 cells [2]; clone 1D8, 0.10 ng ml-1, 48 h): 12.70 | MHC-I relative abundance compared to parental (B16-F10 cells [2]; clone 1D10 (gStub1 #1), 0.10 ng ml-1, 24 h): 4.42 | MHC-I relative abundance compared to parental (B16-F10 cells [2]; clone 1D10 (gStub1 #1), 0.10 ng ml-1, 48 h): 13.18 | MHC-I relative abundance compared to parental (B16-F10 cells [2]; clone 1E6, 0.10 ng ml-1, 24 h): 9.22 | MHC-I relative abundance compared to parental (B16-F10 cells [2]; clone 1E6, 0.10 ng ml-1, 48 h): 24.23 | MHC-I relative abundance compared to parental (B16-F10 cells [2]; clone 1G6, 0.10 ng ml-1, 24 h): 4.19 | MHC-I relative abundance compared to parental (B16-F10 cells [2]; clone 1G6, 0.10 ng ml-1, 48 h): 12.85 | MHC-I relative abundance compared to parental (B16-F10 cells [2]; clone 1G10, 0.10 ng ml-1, 24 h): 1.08 | MHC-I relative abundance compared to parental (B16-F10 cells [2]; clone 1G10, 0.10 ng ml-1, 48 h): 0.94 | MHC-I relative abundance compared to parental (B16-F10 cells [2]; clone 1H7, 0.10 ng ml-1, 24 h): 2.27 | MHC-I relative abundance compared to parental (B16-F10 cells [2]; clone 1H7, 0.10 ng ml-1, 48 h): 5.53 | MHC-I relative abundance compared to parental (B16-F10 cells [2]; clone 2B11, 0.10 ng ml-1, 24 h): 2.67 | MHC-I relative abundance compared to parental (B16-F10 cells [2]; clone 2B11, 0.10 ng ml-1, 48 h): 9.24 | MHC-I relative abundance compared to parental (B16-F10 cells [2]; clone 2E8 (gControl), 0.10 ng ml-1, 24 h): 0.75 | MHC-I relative abundance compared to parental (B16-F10 cells [2]; clone 2E8 (gControl), 0.10 ng ml-1, 48 h): 0.77 | MHC-I relative abundance compared to parental (B16-F10 cells [2]; clone 2E9, 0.10 ng ml-1, 24 h): 4.10 | MHC-I relative abundance compared to parental (B16-F10 cells [2]; clone 2E9, 0.10 ng ml-1, 48 h): 11.55 | MHC-I relative abundance compared to parental (B16-F10 cells [2]; clone 2F7, 0.10 ng ml-1, 24 h): 1.00 | MHC-I relative abundance compared to parental (B16-F10 cells [2]; clone 2F7, 0.10 ng ml-1, 48 h): 1.01 | MHC-I relative abundance compared to parental (B16-F10 cells [2]; clone 2H3, 0.10 ng ml-1, 24 h): 3.56 | MHC-I relative abundance compared to parental (B16-F10 cells [2]; clone 2H3, 0.10 ng ml-1, 48 h): 12.42
